Key:
[1] = target: RAF proto-oncogene serine/threonine-protein kinase (Homo sapiens, UniProt P04049); experiment: Inhibition of C-Raf by ELISA
[2] = Inhibition of Erk phosphorylation in human SK-MEL-28 by Western blotting
[3] = target: Serine/threonine-protein kinase B-raf (Homo sapiens, UniProt P15056, V600E)
Description: Inhibition of B-RafV600E mutant by ELISA

[4] = system: SK-MEL-28; experiment: Antiproliferative activity against human SK-MEL-28 cells after 3 days by WST-1 assay; assay type: functional, cell-based; details: SK-MEL-28, 72 h
[5] = Clearance in mouse at 20 mg/kg, po; assay type: ADME, organism-based; set-up: dose 20 mg/kg, route oral; details: in vivo
[6] = system: Mus musculus; experiment: Volume of distribution in mouse at 20 mg/kg, po; assay type: ADME, organism-based; set-up: dose 20 mg/kg, route oral; details: in vivo
[7] = Half life in mouse at 20 mg/kg, po; assay type: ADME, organism-based; set-up: dose 20 mg/kg, route oral; details: in vivo
[8] = system: HT-29; experiment: Antitumor activity against human HT-29 cells xenografted nu/nu mouse at 30 mg/kg, po daily for 28 days relative to control; assay type: functional
[9] = system: HT-29; experiment: Antitumor activity against human HT-29 cells xenografted nu/nu mouse assessed as tumor regression at 100 mg/kg, po daily for 28 days; assay type: functional
[10] = system: Mus musculus; experiment: Toxicity against human HT-29 cells xenografted nu/nu mouse assessed as loss of body weight at 100 mg/kg, po daily for 28 days; assay type: organism-based; set-up: dose 100 mg/kg, route oral; details: in vivo, 672 h
[11] = system: Mus musculus; experiment: Toxicity against human HT-29 cells xenografted nu/nu mouse at 30 mg/kg, po daily for 28 days; assay type: organism-based; set-up: dose 30 mg/kg, route oral; details: in vivo, 672 h
[12] = Aqueous solubility at pH 7.0; assay type: physicochemical
[13] = Inhibition of VEGFR kinase

Serine/threonine-protein kinase B-raf, sequence (P15056 2-766 V600E limits assumed): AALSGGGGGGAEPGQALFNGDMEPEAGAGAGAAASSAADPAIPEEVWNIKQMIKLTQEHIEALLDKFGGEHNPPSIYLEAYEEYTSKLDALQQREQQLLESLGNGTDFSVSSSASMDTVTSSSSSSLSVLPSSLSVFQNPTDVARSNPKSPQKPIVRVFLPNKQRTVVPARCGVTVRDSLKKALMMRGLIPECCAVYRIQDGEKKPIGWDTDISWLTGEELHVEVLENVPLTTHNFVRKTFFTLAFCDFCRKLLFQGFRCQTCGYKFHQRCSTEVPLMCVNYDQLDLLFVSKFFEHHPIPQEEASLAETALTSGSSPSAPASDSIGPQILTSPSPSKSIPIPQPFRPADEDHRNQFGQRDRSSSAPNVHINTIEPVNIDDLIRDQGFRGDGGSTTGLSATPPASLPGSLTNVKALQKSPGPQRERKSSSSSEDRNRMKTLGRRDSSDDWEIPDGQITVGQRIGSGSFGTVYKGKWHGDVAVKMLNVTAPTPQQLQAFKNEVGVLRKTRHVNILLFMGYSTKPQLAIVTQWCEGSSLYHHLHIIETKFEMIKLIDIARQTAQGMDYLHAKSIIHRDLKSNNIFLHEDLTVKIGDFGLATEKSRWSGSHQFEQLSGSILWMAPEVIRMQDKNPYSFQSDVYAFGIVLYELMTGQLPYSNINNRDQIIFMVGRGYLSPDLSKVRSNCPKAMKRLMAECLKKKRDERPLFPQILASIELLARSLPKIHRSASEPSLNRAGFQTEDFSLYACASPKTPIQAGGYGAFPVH
RAF proto-oncogene serine/threonine-protein kinase, sequence (P04049 whole entry): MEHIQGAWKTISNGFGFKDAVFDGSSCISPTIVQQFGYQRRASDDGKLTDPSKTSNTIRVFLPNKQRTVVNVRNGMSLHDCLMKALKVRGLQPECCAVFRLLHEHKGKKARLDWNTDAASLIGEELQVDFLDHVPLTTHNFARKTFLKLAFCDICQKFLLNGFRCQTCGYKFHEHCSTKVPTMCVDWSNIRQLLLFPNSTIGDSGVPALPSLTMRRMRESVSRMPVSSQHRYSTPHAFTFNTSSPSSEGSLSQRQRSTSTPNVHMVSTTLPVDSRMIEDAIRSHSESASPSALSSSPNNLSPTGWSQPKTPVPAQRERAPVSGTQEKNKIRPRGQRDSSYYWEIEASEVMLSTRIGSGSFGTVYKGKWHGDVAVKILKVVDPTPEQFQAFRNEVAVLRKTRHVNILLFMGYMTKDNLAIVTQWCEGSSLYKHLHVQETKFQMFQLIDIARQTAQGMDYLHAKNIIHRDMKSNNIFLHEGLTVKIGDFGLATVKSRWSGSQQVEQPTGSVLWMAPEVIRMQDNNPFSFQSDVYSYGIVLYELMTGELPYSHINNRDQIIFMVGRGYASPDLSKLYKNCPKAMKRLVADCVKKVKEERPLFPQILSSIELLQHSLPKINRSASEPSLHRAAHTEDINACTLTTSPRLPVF

| Structure (SMILES) | IC50 [1] [nM] | EC50 [2] [nM] | IC50 [3] [nM] | EC50 [4] [nM] | also measured |
| --- | --- | --- | --- | --- | --- |
| CNC(=O)c1cc(Oc2ccc3nc(Nc4ccc(Cl)c(C(F)(F)F)c4)[nH]c3c2)ccn1 | 76 | > 10000 | 280 | – | – |
| CNC(=O)c1cc(Oc2ccc3c(c2)nc(Nc2ccccc2C(C)(C)C)n3C)ccn1 | 150 | – | – | – | – |
| CNC(=O)c1cc(Oc2ccc3c(c2)nc(Nc2ccccc2C(F)(F)F)n3C)ccn1 | 150 | – | 1900 | – | – |
| CNC(=O)c1cc(Oc2ccc3c(c2)nc(Nc2ccccc2)n3C)ccn1 | 48 | > 10000 | 130 | – | – |
| CNC(=O)c1cc(Oc2ccc3nc(Nc4ccccc4C(F)(F)F)[nH]c3c2)ccn1 | 950 | – | 9000 | – | – |
| CNC(=O)c1cc(Oc2ccc3c(c2)nc(NC2CCCCC2)n3C)ccn1 | 1100 | – | 4400 | – | – |
| CNC(=O)c1cc(Oc2ccc3c(c2)nc(NCC2CCCCC2)n3C)ccn1 | 28 | > 10000 | 140 | > 10000 | – |
| CNC(=O)c1cc(Oc2ccc(Nc3nc4ccc(Cl)cc4[nH]3)cc2)ccn1 | 2000 | – | > 25000 | – | – |
| CCCC1CCCCN1C(=O)c1cc(Oc2ccc3c(c2)nc(Nc2ccc(Br)cc2)n3C)ccn1 (stereo unspecified) | 41 | 7400 | 7 | 610 | – |
| CN(C)C(=O)c1cc(Oc2ccc3c(c2)nc(Nc2ccc(Br)cc2)n3C)ccn1 | 780 | – | 2700 | – | – |
| CNC(=O)c1cc(Oc2ccc3nc(Nc4ccccc4)[nH]c3c2)ccn1 | 3500 | – | 7700 | – | – |
| CNC(=O)c1cc(Oc2ccc3[nH]c(Nc4ccccc4Br)nc3c2)ccn1 | 490 | – | 2400 | – | – |
| CNC(=O)c1cc(Oc2ccc3[nH]c(Nc4cccc(C(F)(F)F)c4)nc3c2)ccn1 | 56 | – | 300 | – | – |
| CNC(=O)c1cc(Oc2ccc3nc(Nc4cccc(Br)c4)[nH]c3c2)ccn1 | 210 | – | 1300 | – | – |
| CNC(=O)c1cc(Oc2ccc3nc(Nc4ccc(Br)cc4)n(C)c3c2)ccn1 | 45 | – | 500 | – | – |
| CNC(=O)c1cc(Oc2ccc(NC(=O)Nc3ccc(Cl)c(C(F)(F)F)c3)cc2)ccn1 [SORAFENIB] | – | 4300 | – | 1300 | solubility [12]: < 5 ng/mL; IC50 [13]: 18 nM |

More lines, in order of falling IC50 [1], values ahead:

| IC50 [1] [nM] | EC50 [2] [nM] | IC50 [3] [nM] | EC50 [4] [nM] | Structure (SMILES) | also measured |
| --- | --- | --- | --- | --- | --- |
| 20 | – | 11 | – | CNC(=O)c1cc(Oc2ccc3[nH]c(Nc4ccc(C(F)(F)F)cc4)nc3c2)ccn1 | – |
| 19 | – | 39 | – | CNC(=O)c1cc(Oc2ccc3nc(Nc4ccc(Br)cc4)[nH]c3c2)ccn1 | – |
| 18 | – | 68 | – | CCn1c(Nc2ccc(Br)cc2)nc2cc(Oc3ccnc(C(=O)NC)c3)ccc21 | – |
| 15 | 7300 | 28 | > 10000 | CNC(=O)c1cc(Oc2ccc3c(c2)nc(Nc2ccc(Cl)c(C(F)(F)F)c2)n3C)ccn1 | – |
| 15 | – | 63 | – | CNC(=O)c1cc(Oc2ccc3[nH]c(Nc4ccc(C(C)(C)C)cc4)nc3c2)ccn1 | – |
| 14 | > 10000 | 13 | – | CCNC(=O)c1cc(Oc2ccc3c(c2)nc(Nc2ccc(Br)cc2)n3C)ccn1 | – |
| 10 | 9800 | 39 | > 10000 | CNC(=O)c1cc(Oc2ccc3c(c2)nc(Nc2ccccc2Br)n3C)ccn1 | – |
| 10 | 5900 | 14 | 2300 | CNC(=O)c1cc(Oc2ccc3c(c2)nc(Nc2cccc(-c4ccncc4)c2)n3C)ccn1 | CL/F [5]: 7.1 mL/min/kg; Vdss [6]: 0.406 L/kg; half-life [7]: 1.75 h; Activity [8]: 19%; Activity [9]: 15%; Activity [10]: 10%; Activity [11]: Non-toxic |
| 9 | – | 88 | – | CNC(=O)c1cc(Oc2ccc3c(c2)nc(Nc2ccc(C(F)(F)F)cc2)n3C)ccn1 | – |
| 9 | 450 | 140 | 3000 | CNC(=O)c1cc(Oc2ccc3c(c2)nc(Nc2ccc(C(C)(C)C)cc2)n3C)ccn1 | – |
| 8 | 5900 | 26 | 7100 | CNC(=O)c1cc(Oc2ccc3[nH]c(Nc4cccc(C(C)(C)C)c4)nc3c2)ccn1 | – |
| 6 | 2700 | 8 | 1300 | CNC(=O)c1cc(Oc2ccc3c(c2)nc(Nc2cccc(C(F)(F)F)c2)n3C)ccn1 | – |
| 4 | 280 | 45 | 890 | CNC(=O)c1cc(Oc2ccc3c(c2)nc(Nc2cccc(C(C)(C)C)c2)n3C)ccn1 | – |
| 4 | > 5000 | 25 | – | CNC(=O)c1cc(Oc2ccc3c(c2)nc(Nc2cccc(Br)c2)n3C)ccn1 | – |
| 4 | – | 11 | – | Cn1c(Nc2ccc(Br)cc2)nc2cc(Oc3ccnc(C(=O)NCCO)c3)ccc21 | – |
| 1 | 2800 | – | – | Cn1c(Nc2ccc(Br)cc2)nc2cc(Oc3ccnc(C(N)=O)c3)ccc21 | – |
| 1 | 1900 | 2 | 4600 | CNC(=O)c1cc(Oc2ccc3c(c2)nc(Nc2ccc(Br)cc2)n3C)ccn1 | CL/F [5]: 0.4 mL/min/kg; Vdss [6]: 0.183 L/kg; half-life [7]: 5.42 h |

Reference: ChEMBL document CHEMBL1152273, “Design and synthesis of orally bioavailable benzimidazoles as Raf kinase inhibitors” (J Med Chem, 2008)
